According to patent US4157392A, “Pharmacologically active substituted 1,2,4-triazines” (Diamond Shamrock Corporation, priority 1978, dated 1979):
Structures can show the parent of a compound that is named as a salt. Where two headings read alike, the source gives them in different places.

Test system: phenylquinone writhing in mice
Assay: Phenylquinone Writhing Assay (analgesia)
Format: in vivo, mouse (Carworth CF1 male mice)
Conditions: Mus musculus, po, read-out: Phenylquinone Writhing Assay (% Control), percent analgesia; for responders at 60 mg/kg: 60 mg/kg oral; for responders at 25 mg/kg: 25 mg/kg oral; for responders at 50 mg/kg: 50 mg/kg oral; for responders at 100 mg/kg: 100 mg/kg oral; for responders at 30 mg/kg: 30 mg/kg oral; for responders at 75 mg/kg: 75 mg/kg oral
Method: The phenylquinone writhing test was employed to evaluate analgesic activity according to the following procedure:
Phenylquinone (phenyl-p-benzoquinone, No. 7104, Eastman Organic Chemicals) is made up as a 0.02% aqueous solution in 5% ethyl alcohol. Phenylquinone solutions are made up fresh twice daily. Standard reference agents and the test compounds are dissolved or suspended in a 0.25% methylcellulose solution. A control group consisting of ten mice (Carworth CF1 male mice) are administered the 0.02% phenylquinone solution at a dose of 0.25 ml/mouse. The mice are housed individually and observed closely for ten minutes for exhibition of writhing. The onset of writhing occurs within three minutes and 100% of the mice must writhe within ten minutes. Test compounds are administered orally to groups of ten mice. The volume given is 0.01 ml/gram of body weight. Activity can be studied at 15, 30, 60, and 120 minutes after oral administration. After the designated time interval of a dose group has elapsed, the mice are challenged with phenylquinone intraperitoneally. Complete blocking of the writhing syndrom for the ten minute observation period in any one mouse is considered a positive analgesic response for that mouse. Conversely, if any mouse writhes definitely once it is considered not to be protected. The number of mice not writhing in group multiplied by ten equals percent analgesia for that dose at that time interval.

Row | SMILES | responders at 100 mg/kg (0.25 h, 15 Min.) [%] | responders at 100 mg/kg (0.5 h, 30 Min.) [%] | responders at 100 mg/kg (1 h, 60 Min) [%] | further results
1 | CSc1nncc(-c2cccc(Cl)c2)n1 [Example 15, 3-methylthio-5-(3'-chlorophenyl)-1,2,4-triazine] |  |  |  | responders at 60 mg/kg (0.25 h, 15 Min.): 10%
2 | COc1nncc(-c2cccs2)n1 [Example 66, 3-methoxy-5-(2'-thienyl)-1,2,4-triazine] |  |  |  | responders at 25 mg/kg (0.25 h, 15 Min.): 20%; responders at 50 mg/kg (0.25 h, 15 Min.): 80%; responders at 60 mg/kg (0.25 h, 15 Min.): 100%; responders at 25 mg/kg (0.5 h, 30 Min.): 10%; responders at 50 mg/kg (0.5 h, 30 Min.): 50%; responders at 60 mg/kg (0.5 h, 30 Min.): 80%; responders at 50 mg/kg (1 h, 60 Min): 20%; responders at 60 mg/kg (1 h, 60 Min): 40%
3 | NNc1nncc(-c2cccc(C(F)(F)F)c2)n1 [Example 67, 3-hydrazino-5-(3'-trifluoromethylphenyl)-1,2,4-triazine] | 10 | 60 | 40 | responders at 50 mg/kg (0.25 h, 15 Min.): 70%; responders at 25 mg/kg (0.5 h, 30 Min.): 20%; responders at 50 mg/kg (0.5 h, 30 Min.): 30%; responders at 25 mg/kg (1 h, 60 Min): 10%; responders at 50 mg/kg (1 h, 60 Min): 30%
4 | COc1cccc(-c2cnnc(SC)n2)c1 [Example 68, 3-methylthio-5-(3'-methoxyphenyl)-1,2,4-triazine] |  |  |  | responders at 30 mg/kg (0.25 h, 15 Min.): 10%
5 | COc1cccc(-c2cnnc(OC)n2)c1 [Example 69, 3-methoxy-5-(3'-methoxyphenyl)-1,2,4-triazine] | 10 | 20 | 10 | responders at 50 mg/kg (0.25 h, 15 Min.): 10%; responders at 50 mg/kg (0.5 h, 30 Min.): 20%; responders at 50 mg/kg (1 h, 60 Min): 20%
6 | CSc1nncc(-c2ccc(Cl)s2)n1 [Example 70, 3-methylthio-5-(5'-chloro-2'-thienyl)-1,2,4-triazine] | 10 | 20 | 10 | responders at 50 mg/kg (0.25 h, 15 Min.): 10%; responders at 50 mg/kg (0.5 h, 30 Min.): 20%; responders at 50 mg/kg (1 h, 60 Min): 10%
7 | CSc1nncc(-c2cccc3ccccc23)n1 [Example 71, 3-methylthio-5-(1'-naphthyl)-1,2,4-triazine] |  | 10 | 20 | 
8 | CSc1nncc(-c2ccc(C)cc2)n1 [Example 72, 3-methylthio-(4'-methylphenyl)-1,2,4-triazine] | 20 |  |  | 
9 | CSc1nncc(-c2ccc(Cl)cc2)n1 [Example 74, 3-methylthio-5-(4'-chlorophenyl)-1,2,4-triazine] | 10 |  |  | 
10 | COc1nncc(-c2cccc(Cl)c2)n1 [Example 75, 3-methoxy-5-(3'-chlorophenyl)-1,2,4-triazine] |  |  |  | responders at 60 mg/kg (0.25 h, 15 Min.): 100%; responders at 60 mg/kg (0.5 h, 30 Min.): 90%; responders at 60 mg/kg (1 h, 60 Min): 70%
11 | CSc1nnc(-c2ccco2)c(-c2ccco2)n1 [Example 76, 3-methylthio-5,6-bis-(2'-furyl)-1,2,4-triazine] |  |  |  | responders at 30 mg/kg (0.25 h, 15 Min.): 10%
12 | NNc1nnc(-c2ccco2)c(-c2ccco2)n1 [Example 77, 3-hydrazino-5,6-bis-(2'-furyl)-1,2,4-triazine] |  |  |  | responders at 25 mg/kg (0.25 h, 15 Min.): 20%; responders at 75 mg/kg (0.25 h, 15 Min.): 20%; responders at 25 mg/kg (0.5 h, 30 Min.): 20%; responders at 75 mg/kg (0.5 h, 30 Min.): 10%; responders at 25 mg/kg (1 h, 60 Min): 20%; responders at 75 mg/kg (1 h, 60 Min): 10%
13 | Cc1ccc(-c2nnc(C)nc2-c2ccc(C)cc2)cc1 [Example 78, 3-methyl-5,6-bis-(4'-methylphenyl)-1,2,4-triazine] | 50 | 80 | 50 | responders at 50 mg/kg (0.25 h, 15 Min.): 20%; responders at 50 mg/kg (0.5 h, 30 Min.): 20%; responders at 50 mg/kg (1 h, 60 Min): 20%
14 | Cc1nnc(S(C)(=O)=O)nc1C [Example 79, 3-methylsulfonyl-5,6-dimethyl-1,2,4-triazine] |  | 30 | 30 | 
15 | COc1ccc(-c2nnc(SC)nc2-c2ccc(OC)c(OC)c2)cc1OC [Example 80, 3-methylthio-5,6-bis(3',4'-dimethoxyphenyl)-1,2,4-triazine] | 10 | 10 |  | 
16 | c1ccc(-c2nnc(-c3ccccn3)nc2-c2ccccc2)cc1 [Example 81, 3-(2'-pyridyl)-5,6-diphenyl-1,2,4-triazine] | 10 | 20 |  | 

Row | SMILES | responders at 100 mg/kg (0.25 h, 15 Min.) [%] | responders at 100 mg/kg (0.5 h, 30 Min.) [%] | responders at 100 mg/kg (1 h, 60 Min) [%] | further results
17 | COc1ncc(-c2ccccc2)nn1 [Example 82, 3-methoxy-6-phenyl-1,2,4-triazine] |  |  |  | responders at 25 mg/kg (0.25 h, 15 Min.): 10%; responders at 50 mg/kg (0.25 h, 15 Min.): 10%; responders at 50 mg/kg (0.5 h, 30 Min.): 10%
18 | COc1cc(-c2cnnc(SC)n2)ccc1OCc1ccccc1 [Example 83, 3-methylthio-5-(3'-methoxy-4'-benzyloxyphenyl)-1,2,4-triazine] | 10 |  |  | 
19 | CSc1nncc(-c2c3ccccc3cc3ccccc23)n1 [Example 84, 3-methylthio-5-(9'-anthracenyl)-1,2,4-triazine] |  | 10 | 20 | 
20 | COc1nncc(-c2c3ccccc3cc3ccccc23)n1 [Example 85, 3-methoxy-5-(9'-anthracenyl)-1,2,4-triazine] | 10 |  |  | 
21 | CSc1nncc(-c2ccc3c(c2)OCO3)n1 [Example 86, 3-methylthio-5-(3',4'-methylenedioxyphenyl)-1,2,4-triazine] | 20 |  |  | 
22 | CSc1nncc(C(c2ccccc2)c2ccccc2)n1 [Example 87, 3-methylthio-5-diphenylmethyl-1,2,4-triazine] | 10 |  | 10 | 
23 | CCOc1ccc(-c2cnnc(SC)n2)cc1 [Example 88, 3-methylthio-5-(4'-ethoxyphenyl)-1,2,4-triazine] | 10 |  |  | 
24 | COc1nncc(-c2c(C)cc(C)cc2C)n1 [Example 89, 3-methoxy-5-(2',4',6'-trimethylphenyl)-1,2,4-triazine] | 10 |  | 10 | 
25 | Oc1nncc(-c2ccccc2)n1 [Example 90, 3-hydroxy-5-phenyl-1,2,4-triazine] |  |  | 20 | 
26 | COc1ccc(-c2cnnc(OC)n2)cc1 [Example 91, 3-methoxy-5-(4'-methoxyphenyl)-1,2,4-triazine] | 30 | 10 |  | 
27 | COc1nnc(-c2ccc(OC)c(OC)c2)c(-c2ccc(OC)c(OC)c2)n1 [Example 92, 3-methoxy-5,6-bis(3',4'-dimethoxyphenyl)-1,2,4-triazine] | 10 | 10 |  | 
28 | COc1ccc(-c2nnc(SC)nc2-c2ccc(OC)cc2)cc1 [Example 93, 3-methylthio-5,6-bis(4'-methoxyphenyl)-1,2,4-triazine] | 20 | 30 | 30 | 
29 | CC(C)Oc1nnc(-c2ccccc2)c(-c2ccccc2)n1 [Example 95, 3-isopropoxy-5,6-diphenyl-1,2,4-triazine] | 10 | 10 | 20 | 
30 | COc1nnc(-c2ccc(Cl)cc2)c(-c2ccc(Cl)cc2)n1 [Example 96, 3-methoxy-5,6-bis(4'-chlorophenyl)-1,2,4-triazine] |  | 30 | 10 | 
31 | CC(N)C(=O)NNc1nncc(-c2ccc(Cl)cc2)n1 (stereo not shown) [Example 114, N2-(5-p-chlorophenyl-1,2,4-triazin-3-yl) alanine hydrazide (dihydrobromide hydrate)] |  |  |  | responders at 50 mg/kg (0.25 h, 15 Min.): 50%; responders at 50 mg/kg (0.5 h, 30 Min.): 50%; responders at 50 mg/kg (1 h, 60 Min): 60%
32 | NC(Cc1ccccc1)C(=O)NNc1nncc(-c2ccccc2)n1 (stereo not shown) [Example 116, N2-(5-phenyl-1,2,4-triazin-3-yl) phenylalanine hydrazide (dihydrobromide hydrate)] | 30 | 60 | 60 | 
